Test results reported in patent US8030336B2, “Nicotinamide-based kinase inhibitors” (YM Biosciences Australia Pty Ltd, priority 2002, dated 2011).

What was measured:
Assay type in all cases: biochemical
hck = hck (Homo sapiens, UniProt P08631); assay: hck kinase assay (ELISA or Alphascreen); conditions: read-out: hck inhibition of enzyme activity
Procedure: Kinase assays were performed in a 96 well capture-based ELISA assay or in 384 well Optiplates (Packard) using an Alphascreen Protein Tyrosine Kinase kit. In either case using approximately 1.5 μg of affinity purified PTK domain in the presence of 50 mM HEPES, pH 7.5, 10 mM MgCl2, 150 mM NaCl and 10 μM-1 mM ATP. The biotinylated substrate biotin-EGPWLEEEEEAYGWMDF-NH2 (SEQ ID NO:9) (final concentration 5 μM) was used as substrate. In the ELISA assay tyrosine phosphorylation was quantitated following transfer to an avidin coated ELISA plate using peroxidase-linked anti-phosphotyrosine antibody PY20. In the Alphascreen assay, Alphascreen phosphotyrosine acceptor beads followed by streptavidin donor beads were added under subdued light. The ELISA plates were read on a BMG Fluorostar, the Alphascreen plates were read on a Packard Fusion Alpha. Inhibitors were added to the assays fifteen minutes prior to the addition of ATP. Inhibitors were added in aqueous […] concentrations never exceeding 1%.

abl = target: T1, abl (Homo sapiens, UniProt P00519); assay: abl kinase assay (ELISA or Alphascreen); conditions: read-out: abl inhibition of enzyme activity
T1 sequence (P00519 242-493 limits assumed): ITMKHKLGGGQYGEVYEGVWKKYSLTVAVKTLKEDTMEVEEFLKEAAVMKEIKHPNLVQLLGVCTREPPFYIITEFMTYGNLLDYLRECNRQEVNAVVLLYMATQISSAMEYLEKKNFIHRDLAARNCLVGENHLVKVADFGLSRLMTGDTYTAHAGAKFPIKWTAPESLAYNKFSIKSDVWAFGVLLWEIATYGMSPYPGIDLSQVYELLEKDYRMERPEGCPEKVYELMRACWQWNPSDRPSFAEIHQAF
In short: (§1)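 PTK domain ~1.5 μg; 50 mM HEPES pH 7.5, 10 mM MgCl2, 150 mM NaCl; ATP 10 μM-1 mM; biotinylated peptide 5 μM final. Read-out: avidin-capture ELISA with PY20 or Alphascreen pTyr acceptor/streptavidin donor beads.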

fes = fes (Homo sapiens, UniProt P07332); assay: fes kinase assay (ELISA or Alphascreen); conditions: read-out: fes inhibition of enzyme activity
Sequence of fes (P07332 561-822 limits assumed, species assumed): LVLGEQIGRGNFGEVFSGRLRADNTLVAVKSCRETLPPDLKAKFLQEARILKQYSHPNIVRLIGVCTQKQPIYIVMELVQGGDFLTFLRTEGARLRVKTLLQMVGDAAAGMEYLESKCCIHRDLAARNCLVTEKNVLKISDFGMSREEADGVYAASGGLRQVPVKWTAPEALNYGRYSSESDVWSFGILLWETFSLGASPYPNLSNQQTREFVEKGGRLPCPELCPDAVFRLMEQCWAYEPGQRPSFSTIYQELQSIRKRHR
In short: as §1

human JAK3 = target: T2, human JAK3 (Homo sapiens, UniProt P52333); assay: JAK3 kinase assay (ELISA or Alphascreen); conditions: read-out: Jak3 inhibition of enzyme activity
T2 construct: The kinase domain of human JAK3 was amplified from U937mRNA; His tag (from the pFastBac HTb vector) (N); made in house; host or cells: baculovirus; Sf9 for virus, High Five insect cells for production
T2 sequence (P52333 822-1111 limits assumed): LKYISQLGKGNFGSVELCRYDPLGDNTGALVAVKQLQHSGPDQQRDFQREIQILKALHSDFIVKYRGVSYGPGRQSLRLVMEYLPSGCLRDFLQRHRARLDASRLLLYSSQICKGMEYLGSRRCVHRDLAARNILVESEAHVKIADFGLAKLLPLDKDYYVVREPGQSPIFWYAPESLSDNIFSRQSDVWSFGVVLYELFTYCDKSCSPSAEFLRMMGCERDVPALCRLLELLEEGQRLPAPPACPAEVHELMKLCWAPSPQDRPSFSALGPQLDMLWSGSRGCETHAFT
In short: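 Read-out: anti-phosphotyrosine detection of a 5 μM biotin-peptide substrate, via PY20-peroxidase ELISA or Alphascreen beads. Enzyme was nickel-purified recombinant JAK3 kinase domain (~1.5 μg), with ATP at 10 μM-1 mM, pH 7.5 HEPES/MgCl2/NaCl.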

human JAK2 = target: T3, human JAK2 (Homo sapiens, UniProt O60674); assay: JAK2 kinase assay (ELISA or Alphascreen); conditions: read-out: Jak2 inhibition of enzyme activity
T3 construct: The kinase domain of human JAK2 was amplified from U937mRNA; His tag (from the pFastBac HTc vector) (N); made in house; host or cells: baculovirus; Sf9 for virus, High Five insect cells for production
T3 sequence (O60674 849-1124 limits assumed): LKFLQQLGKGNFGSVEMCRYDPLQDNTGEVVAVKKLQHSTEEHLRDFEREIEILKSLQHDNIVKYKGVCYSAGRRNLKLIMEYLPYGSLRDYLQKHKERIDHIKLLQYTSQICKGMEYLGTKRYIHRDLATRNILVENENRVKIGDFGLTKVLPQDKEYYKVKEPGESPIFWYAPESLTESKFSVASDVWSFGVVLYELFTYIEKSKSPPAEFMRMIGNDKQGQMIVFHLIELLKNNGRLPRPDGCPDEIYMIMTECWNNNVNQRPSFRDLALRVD
In short: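 His-tagged human JAK2 kinase domain from baculovirus-infected insect cells, ~1.5 μg per assay, in 50 mM HEPES pH 7.5, 10 mM MgCl2, 150 mM NaCl, with 10 μM–1 mM ATP and 5 μM biotinylated peptide substrate. Phosphotyrosine detected by PY20 ELISA or AlphaScreen.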

fms = target: T4, fms (Homo sapiens, UniProt P07333); assay: fms kinase assay (ELISA or Alphascreen); conditions: read-out: fms inhibition of enzyme activity
T4 sequence (P07333 582-910 limits assumed): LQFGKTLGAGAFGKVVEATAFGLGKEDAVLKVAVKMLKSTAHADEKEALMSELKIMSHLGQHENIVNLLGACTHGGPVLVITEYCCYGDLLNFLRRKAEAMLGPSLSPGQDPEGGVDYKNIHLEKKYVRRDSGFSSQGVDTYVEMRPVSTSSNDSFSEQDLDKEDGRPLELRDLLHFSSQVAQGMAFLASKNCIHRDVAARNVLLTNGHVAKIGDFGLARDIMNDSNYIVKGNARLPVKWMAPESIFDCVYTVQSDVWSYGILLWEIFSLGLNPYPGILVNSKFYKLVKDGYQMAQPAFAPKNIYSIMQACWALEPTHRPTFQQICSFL
In short: as §1

Zap70 = target: T5, Zap70 (Homo sapiens, UniProt P43403); assay: Zap70 kinase assay (ELISA or Alphascreen); conditions: read-out: Zap70 inhibition of enzyme activity
T5 sequence (P43403 338-600 limits assumed): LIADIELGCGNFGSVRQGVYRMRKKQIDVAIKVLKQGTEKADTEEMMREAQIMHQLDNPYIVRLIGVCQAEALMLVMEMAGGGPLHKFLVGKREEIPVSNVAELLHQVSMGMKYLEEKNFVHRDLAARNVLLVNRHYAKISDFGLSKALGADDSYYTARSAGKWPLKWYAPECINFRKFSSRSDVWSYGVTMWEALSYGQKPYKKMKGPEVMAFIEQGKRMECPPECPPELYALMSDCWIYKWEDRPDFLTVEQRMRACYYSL
In short: as §1

Sequence of hck (P08631 262-515 limits assumed, species assumed): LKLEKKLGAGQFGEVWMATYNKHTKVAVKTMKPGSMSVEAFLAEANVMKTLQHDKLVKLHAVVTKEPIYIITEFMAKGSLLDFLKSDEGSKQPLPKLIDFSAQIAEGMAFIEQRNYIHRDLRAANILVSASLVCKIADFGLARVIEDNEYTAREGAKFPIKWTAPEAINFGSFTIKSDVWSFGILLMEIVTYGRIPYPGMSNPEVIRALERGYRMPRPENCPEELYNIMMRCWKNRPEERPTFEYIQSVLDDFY

Compound	inhibition at 10 µM (hck)	inhibition at 10 µM (abl)	inhibition at 10 µM (fes)	inhibition at 10 µM (human JAK3)	inhibition at 10 µM (human JAK2)	inhibition at 10 µM (fms)	inhibition at 10 µM (Zap70)
COc1cc(-c2cncc(C(=O)Nc3cc(C)ccc3C)c2)c(Cl)c(OC)c1OC	≥ 50%	< 50%	< 50%	< 50%	< 50%	≥ 50%	–
Cc1cc(F)ccc1NC(=O)c1cncc(-c2ccc3c(c2)OCO3)c1	< 50%	< 50%	–	< 50%	< 50%	< 50%	< 50%
COc1cc(-c2cncc(C(=O)NC(C)CCc3ccccc3)c2)c(Cl)c(OC)c1OC (stereo not drawn)	< 50%	< 50%	–	< 50%	< 50%	< 50%	< 50%
O=C(NCc1ccc(N2CCOCC2)cc1)c1cncc(-c2ccc3c(c2)OCO3)c1	< 50%	< 50%	< 50%	< 50%	< 50%	< 50%	–
C[C@H](NC(=O)c1cncc(-c2ccc(F)cc2)c1)c1ccccc1	< 50%	< 50%	–	< 50%	< 50%	< 50%	< 50%
O=C(NCc1cccc(F)c1)c1cncc(-c2cccs2)c1	< 50%	< 50%	≥ 50%	< 50%	< 50%	< 50%	–
COc1cc(-c2cncc(C(=O)Nc3cc(C)ccc3C)c2)ccc1O	≥ 50%	≥ 50%	–	< 50%	< 50%	≥ 50%	< 50%
COc1cc(NC(=O)c2cncc(-c3ccc(F)cc3)c2)cc(OC)c1OC	< 50%	< 50%	–	< 50%	< 50%	< 50%	< 50%
COc1cccc(-c2cncc(C(=O)NC(C)CCc3ccccc3)c2)c1 (stereo not drawn)	< 50%	< 50%	< 50%	–	< 50%	< 50%	< 50%
O=C(NCc1ccc(Cl)c(Cl)c1)c1cncc(-c2ccc(F)cc2)c1	< 50%	< 50%	< 50%	< 50%	< 50%	< 50%	–
O=C(NCc1ccco1)c1cncc(-c2ccc(F)cc2)c1	< 50%	< 50%	–	≥ 50%	< 50%	< 50%	< 50%
C[C@@H](NC(=O)c1cncc(-c2cccnc2)c1)c1ccccc1	< 50%	< 50%	< 50%	< 50%	< 50%	< 50%	–
Cc1ccc(CNC(=O)c2cncc(-c3ccc(F)cc3)c2)cc1	< 50%	< 50%	< 50%	–	< 50%	< 50%	< 50%
Cc1ccccc1NC(=O)c1cncc(-c2cc(C)c(O)c(C)c2)c1	≥ 50%	≥ 50%	–	< 50%	< 50%	≥ 50%	< 50%
COc1cccc(-c2cncc(C(=O)Nc3ccc(OC)cc3OC)c2)c1	< 50%	< 50%	< 50%	< 50%	< 50%	< 50%	–
COc1cccc(-c2cncc(C(=O)Nc3ccccc3)c2)c1	< 50%	< 50%	< 50%	< 50%	< 50%	< 50%	–
COc1cc(-c2cncc(C(=O)N[C@H](C)c3ccccc3)c2)c(Cl)c(OC)c1OC	< 50%	< 50%	< 50%	< 50%	< 50%	< 50%	–
CC(C)C(CO)NC(=O)c1cncc(-c2ccc(F)cc2)c1 (stereo not drawn)	< 50%	< 50%	< 50%	–	< 50%	< 50%	< 50%
COc1cc(-c2cncc(C(=O)Nc3cc(F)ccc3C)c2)ccc1O	≥ 50%	≥ 50%	< 50%	< 50%	< 50%	≥ 50%	–
Cc1ccc(C)c(NC(=O)c2cncc(-c3ccc(O)cc3)c2)c1	≥ 50%	< 50%	–	< 50%	< 50%	< 50%	< 50%
Cc1cc(F)ccc1NC(=O)c1cncc(-c2cc(C)c(O)c(C)c2)c1	≥ 50%	≥ 50%	< 50%	< 50%	< 50%	≥ 50%	–
Cc1cc(-c2cncc(C(=O)Nc3ccccc3)c2)cc(C)c1O	≥ 50%	< 50%	–	< 50%	< 50%	< 50%	< 50%
COc1cccc(-c2cncc(C(=O)Nc3ccc(F)cc3C)c2)c1	≥ 50%	< 50%	< 50%	< 50%	< 50%	< 50%	–
C[C@@H](NC(=O)c1cncc(-c2ccncc2)c1)c1ccccc1	< 50%	< 50%	–	< 50%	< 50%	< 50%	≥ 50%
O=C(Nc1ccccc1)c1cncc(-c2ccc(F)cc2)c1	< 50%	< 50%	< 50%	< 50%	< 50%	< 50%	–
CN(Cc1ccccc1)C(=O)c1cncc(-c2ccc(F)cc2)c1	< 50%	< 50%	< 50%	–	< 50%	< 50%	< 50%
O=C(Nc1ccccc1)c1cncc(-c2ccc(O)cc2)c1	< 50%	< 50%	–	< 50%	< 50%	< 50%	< 50%
